From PubChem BioAssay AID1259407 (Chemical Carcinogenesis Research Information System (CCRIS), 2018)
Activity calls are given as the source filed them. No rule for the calls is given here.

Test system: CCRIS mutagenicity, Ames/micronucleus/aberration tests
Assay: CCRIS mutagenicity studies
[1] = Test System: AMES SALMONELLA TYPHIMURIUM, Strain/Indicator: TA100, Metabolic Activation: RAT, LIVER, S-9, AROCLOR 1254, Method: STANDARD PLATE
[2] = Test System: AMES SALMONELLA TYPHIMURIUM, Strain/Indicator: TA1535, Metabolic Activation: NONE, Method: STANDARD PLATE
[3] = Test System: AMES SALMONELLA TYPHIMURIUM, Strain/Indicator: TA1535, Metabolic Activation: RAT, LIVER, S-9, AROCLOR 1254, Method: STANDARD PLATE
[4] = Test System: AMES SALMONELLA TYPHIMURIUM, Strain/Indicator: TA98, Metabolic Activation: NONE, Method: STANDARD PLATE
[5] = Test System: AMES SALMONELLA TYPHIMURIUM, Strain/Indicator: TA98, Metabolic Activation: RAT, LIVER, S-9, AROCLOR 1254, Method: STANDARD PLATE
[6] = Test System: AMES SALMONELLA TYPHIMURIUM, Strain/Indicator: TA100, Metabolic Activation: NONE, Method: STANDARD PLATE
[7] = Test System: MOUSE LYMPHOMA, Strain/Indicator: L5178Y (TK+/TK-), Metabolic Activation: NONE, Method: SUSPENSION/PLATE
[8] = Test System: MOUSE LYMPHOMA, Strain/Indicator: L5178Y (TK+/TK-), Metabolic Activation: RAT, LIVER, S-9, AROCLOR 1254, Method: SUSPENSION/PLATE

CN(Cc1ccccc1)N=O
mutagenic call [1]: active; positive | mutagenic call (Test System: AMES SALMONELLA TYPHIMURIUM, Strain/Indicator: TA100, Metabolic Activation: RAT, LIVER, S-9, ETHANOL, Method: STANDARD PLATE): active; positive | mutagenic call (Test System: AMES SALMONELLA TYPHIMURIUM, Strain/Indicator: TA100, Metabolic Activation: RAT, LIVER, S-9, KC500 OR PHENOBARBITAL, Method: LIQUID SUSPENSION): active; positive | mutagenic call (Test System: AMES SALMONELLA TYPHIMURIUM, Strain/Indicator: TA100, Metabolic Activation: RAT, LIVER, S-9, Method: STANDARD PLATE): active; positive | mutagenic call (Test System: AMES SALMONELLA TYPHIMURIUM, Strain/Indicator: TA1535, Metabolic Activation: HAMSTER, LIVER, S-9, AROCLOR 1254, Method: STANDARD PLATE): active; positive | mutagenic call (Test System: AMES SALMONELLA TYPHIMURIUM, Strain/Indicator: TA1535, Metabolic Activation: NONE, Method: PREINCUBATION): inactive; negative | mutagenic call [2]: inactive; negative | mutagenic call (Test System: AMES SALMONELLA TYPHIMURIUM, Strain/Indicator: TA1535, Metabolic Activation: RAT, LIVER, HEPATOCYTES, Method: PREINCUBATION): inactive; negative | mutagenic call [3]: active; positive | mutagenic call (Test System: AMES SALMONELLA TYPHIMURIUM, Strain/Indicator: TA1535, Metabolic Activation: RAT, LIVER, S-9, AROCLOR, Method: PREINCUBATION): active; positive | mutagenic call (Test System: AMES SALMONELLA TYPHIMURIUM, Strain/Indicator: TA1535, Metabolic Activation: RAT, LIVER, S-9, ETHANOL, Method: STANDARD PLATE): inactive; negative | mutagenic call (Test System: AMES SALMONELLA TYPHIMURIUM, Strain/Indicator: TA1535, Metabolic Activation: RAT, LIVER, S-9, SODIUM PHENOBARBITONE, Method: PREINCUBATION): active; positive | mutagenic call (Test System: AMES SALMONELLA TYPHIMURIUM, Strain/Indicator: TA1535, Metabolic Activation: RAT, LIVER, S-9, Method: PREINCUBATION): inactive; negative | mutagenic call (Test System: AMES SALMONELLA TYPHIMURIUM, Strain/Indicator: TA1535, Metabolic Activation: RAT, LIVER, S-9, Method: STANDARD PLATE): inactive; negative

Nc1cc([N+](=O)[O-])c(N)cc1F
mutagenic call [4]: active; positive | mutagenic call [5]: active; positive | mutagenic call [6]: inactive; negative | mutagenic call [1]: active; positive | mutagenic call [2]: inactive; negative | mutagenic call [3]: inactive; negative | mutagenic call (Test System: AMES SALMONELLA TYPHIMURIUM, Strain/Indicator: TA1537, Metabolic Activation: NONE, Method: STANDARD PLATE): active; positive | mutagenic call (Test System: AMES SALMONELLA TYPHIMURIUM, Strain/Indicator: TA1537, Metabolic Activation: RAT, LIVER, S-9, AROCLOR 1254, Method: STANDARD PLATE): active; positive | mutagenic call (Test System: AMES SALMONELLA TYPHIMURIUM, Strain/Indicator: TA1538, Metabolic Activation: NONE, Method: STANDARD PLATE): active; positive | mutagenic call (Test System: AMES SALMONELLA TYPHIMURIUM, Strain/Indicator: TA1538, Metabolic Activation: RAT, LIVER, S-9, AROCLOR 1254, Method: STANDARD PLATE): active; positive

ClCc1cccnc1
mutagenic call [4]: inactive; negative | mutagenic call [5]: inactive; negative | mutagenic call [1]: active; positive | mutagenic call (Test System: AMES SALMONELLA TYPHIMURIUM, Strain/Indicator: TA102, Metabolic Activation: NONE, Method: STANDARD PLATE): inactive; negative | mutagenic call (Test System: AMES SALMONELLA TYPHIMURIUM, Strain/Indicator: TA102, Metabolic Activation: RAT, LIVER, S-9, AROCLOR 1254, Method: STANDARD PLATE): inactive; negative | mutagenic call (Test System: E. COLI, Strain/Indicator: WP2 UVRA, Metabolic Activation: MOUSE, LIVER, S-9, AROCLOR 1254, Method: STANDARD PLATE): inactive; negative | mutagenic call (Test System: E. COLI, Strain/Indicator: WP2 UVRA, Metabolic Activation: NONE, Method: STANDARD PLATE): inactive; negative | mutagenic call (Test System: E. COLI, Strain/Indicator: WP2 UVRA, Metabolic Activation: RAT, LIVER, S-9, AROCLOR 1254, Method: STANDARD PLATE): inactive; negative | mutagenic call (Test System: E. COLI, Strain/Indicator: WP2 UVRA, Metabolic Activation: RAT, LIVER, S-9, Method: STANDARD PLATE): inactive; negative | mutagenic call [7]: active; positive | mutagenic call [8]: active; positive

O=[N+]([O-])c1ccc2[nH]ncc2c1
mutagenic call (Test System: AMES SALMONELLA TYPHIMURIUM, Strain/Indicator: TA98, Metabolic Activation: HAMSTER, LIVER, S-9, AROCLOR 1254, Method: STANDARD PLATE): active; positive | mutagenic call [4]: active; positive | mutagenic call [5]: active; positive | mutagenic call (Test System: AMES SALMONELLA TYPHIMURIUM, Strain/Indicator: TA100, Metabolic Activation: HAMSTER, LIVER, S-9, AROCLOR 1254, Method: STANDARD PLATE): active; positive | mutagenic call [6]: active; positive | mutagenic call [1]: active; positive | mutagenic call [7]: inactive; negative. reevaluation of results: negative | mutagenic call [8]: inactive; negative. reevaluation of results: negative
